Source: patent US9718790B2, “Triazine derivative and pharmaceutical composition having an analgesic activity comprising the same” (SHIONOGI & CO., LTD., priority 2010, dated 2017)

Molecular target: human P2X3 receptor (Homo sapiens (Human), UniProt P56373)
Assay: Evaluation of human P2X3 receptor inhibitory activity (Fluo-3 calcium fluorescence, FDSS 3000, ATP stimulation);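 note: stimulus was 50 nM ATP with fluorescence followed for 3 min, and the response per well was peak post-ATP fluorescence divided by the reading at measurement start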
Format: cell-based
[1] = C6BU-1 cells stably expressing human P2X3 receptor
[2] = C6BU-1 cells stably expressing human P2X3 receptor, Fluo-3 fluorescence, FDSS 3000
[3] = human P2X3 receptor, Test Example 1

Sequence of human P2X3 receptor (P56373 whole entry): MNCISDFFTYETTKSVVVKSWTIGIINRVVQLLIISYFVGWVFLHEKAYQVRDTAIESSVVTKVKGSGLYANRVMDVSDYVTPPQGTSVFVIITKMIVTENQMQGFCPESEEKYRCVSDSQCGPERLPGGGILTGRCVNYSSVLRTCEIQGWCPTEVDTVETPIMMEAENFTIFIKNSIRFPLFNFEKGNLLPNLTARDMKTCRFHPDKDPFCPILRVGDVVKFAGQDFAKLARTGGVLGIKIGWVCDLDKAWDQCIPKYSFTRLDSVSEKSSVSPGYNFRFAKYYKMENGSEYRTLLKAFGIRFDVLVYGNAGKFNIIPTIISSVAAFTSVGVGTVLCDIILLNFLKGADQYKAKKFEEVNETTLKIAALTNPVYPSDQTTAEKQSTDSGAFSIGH

Cc1cc(/N=c2\[nH]c(=O)n(C[C@H]3COC(C)(C)O3)c(=O)n2Cc2ccc(Cl)cc2)ccc1OC(C)C [Compound I-0709]
IC50 [1]: 7 nM

Cc1cc(/N=c2\[nH]c(=O)n(C[C@H](C)C(=O)O)c(=O)n2Cc2ccc(Cl)cc2)ccc1CCC1CC1 [Compound I-1024]
IC50 [2]: 161 nM

CCOC(=O)CCn1c(=O)[nH]/c(=N\c2ccc(O[C@H](C)CC)c(Cl)c2)n(Cc2ccc(C)cc2)c1=O [Compound I-1020]
IC50 [2]: 6 nM

Cc1ccc(Cn2c(=O)n(C[C@H](C)C(=O)O)c(=O)[nH]/c2=N\c2ccc(Oc3ccncc3)cc2)cc1 [Compound I-1122]
IC50 [2]: 8 nM

Cc1ccc(Cn2c(=O)n(C[C@H](C)C(=O)O)c(=O)[nH]/c2=N\c2ccc(CC(C)C)c(C)c2)cc1 [Compound I-1044]
IC50 [2]: 19 nM

CCn1c(=O)[nH]/c(=N\c2ccc(Oc3ccc(C(=O)OC)nn3)cc2)n(C[C@H]2CC[C@H](C)CC2)c1=O [Compound I-2701]
IC50 [3]: 1 nM

CCCc1nc2ccc(/N=c3\[nH]c(=O)n(C[C@H](C)C(=O)OC)c(=O)n3Cc3ccc(Cl)cc3)cc2o1 [Compound I-1327]
IC50 [1]: 73 nM

CCOC(=O)c1cc(Oc2ccc(/N=c3\[nH]c(=O)n(CC)c(=O)n3Cc3ccc(Cl)cc3)cc2)[nH]n1 [Compound I-2192]
IC50 [1]: 8 nM

CC(C)Oc1ccc(/N=c2\[nH]c(=O)n(CCC(=O)Nc3ccc(OC(C)C)c(Cl)c3)c(=O)n2CC2CCC3(CC2)CC3)cc1Cl [Compound I-1450]
IC50 [1]: 448 nM

COC(=O)CCn1c(=O)[nH]/c(=N\c2ccccc2NC(C)=O)n(Cc2ccc(C)cc2)c1=O [Compound I-1892]
IC50 [2]: 113 nM

COC(=O)[C@@H](C)Cn1c(=O)[nH]/c(=N\c2ccc(C=C(C)C)c(F)c2)n(Cc2ccc(C)cc2)c1=O [Compound I-1171]
IC50 [2]: 25 nM

CC(C)Oc1ccc(/N=c2\[nH]c(=O)n(CC3(C(=O)O)CC3)c(=O)n2Cc2ccc(Cl)cc2)cc1 [Compound I-0988]
IC50 [2]: 93 nM

CC(C)COc1ccc(/N=c2\[nH]c(=O)n([C@@H](C)[C@@H](C)C(=O)O)c(=O)n2Cc2ccc(Cl)cc2)cc1 [Compound I-1386]
IC50 [1]: 28 nM

CC[C@@H](C)Oc1ccc(/N=c2\[nH]c(=O)n([C@H](C)CC(=O)O)c(=O)n2Cc2ccc(C)cc2)cc1 [Compound I-0936]
IC50 [2]: 65 nM

CCOc1ccc(/N=c2\[nH]c(=O)n([C@@H](C)[C@@H](C)C(=O)O)c(=O)n2Cc2ccc(C)cc2)cc1Cl [Compound I-0973]
IC50 [2]: 19 nM

CCOC(=O)C1(Cn2c(=O)[nH]/c(=N\c3ccc(OCC4CC4)c(Cl)c3)n(Cc3ccc(C)cc3)c2=O)CC1 [Compound I-0970]
IC50 [2]: 20 nM

CC(C)Oc1ccc(/N=c2\[nH]c(=O)n(CC(C)(C)C(=O)O)c(=O)n2Cc2ccc(Cl)cc2)cc1CO [Compound I-1431]
IC50 [1]: 242 nM

CCn1c(=O)[nH]/c(=N\c2ccc(Oc3cc(C(=O)O)sn3)cc2)n(C[C@H]2CC[C@H](C)CC2)c1=O [Compound I-2349]
IC50 [3]: 4 nM

O=C(O)Cn1c(=O)[nH]/c(=N\c2ccc(Oc3ccon3)cc2)n(Cc2ccc(Cl)cc2)c1=O [Compound I-2504]
IC50 [3]: 370 nM

O=c1[nH]/c(=N\c2ccc(Oc3nccs3)cc2)n(Cc2ccc(Cl)cc2)c(=O)n1CC(CO)CO [Compound I-2437]
IC50 [3]: 6 nM

Cc1ccc(Cn2c(=O)n(C[C@H](C)C(=O)O)c(=O)[nH]/c2=N\c2ccc(OCC(C)C)cc2)cc1 [Compound I-0827]
IC50 [3]: 26 nM

CCn1c(=O)[nH]/c(=N\c2ccc(Sc3nc[nH]n3)cc2)n(Cc2ccc(Cl)cc2)c1=O [Compound I-2598]
IC50 [3]: 341 nM

CCn1c(=O)[nH]/c(=N\c2ccc(Oc3cc(F)cc(C(=O)O)c3)cc2)n(Cc2ccc(Cl)cc2)c1=O [Compound I-2223]
IC50 [1]: 6 nM

COC(=O)[C@@H](C)Cn1c(=O)[nH]/c(=N\c2ccc(OC(F)(F)F)cc2)n(Cc2ccc(C)cc2)c1=O [Compound I-0999]
IC50 [2]: 174 nM

Cc1cc(/N=c2\[nH]c(=O)n(CC3(CC(=O)O)CC3)c(=O)n2Cc2ccc(Cl)cc2)ccc1OC(C)C [Compound I-0982]
IC50 [2]: 17 nM

CCn1c(=O)[nH]/c(=N\c2ccc(Oc3cc(C(=O)O)ccn3)cc2)n(Cc2ccc(C)cc2)c1=O [Compound I-2303]
IC50 [3]: 7 nM
